From patent US9095136B2, “2-IODO imidazole-derivatives” (BAYER INTELLECTUAL PROPERTY GMBH, priority 2011, dated 2015)
Marks after values point to notes of the source that are not given here.

Legend:
[1] = log P by HPLC on reversed-phase columns (EEC directive 79/831 Annex V.A8); assay type: physicochemical; conditions: for logP: pH 2.7
Protocol: The log P values were measured according to EEC directive 79/831 Annex V.A8 by HPLC (High Performance Liquid Chromatography) on reversed-phase columns, using the methods below: […] Calibration was carried out using unbranched alkan-2-ones (having from 3 to 16 carbon atoms) with known log P values (the log P values were determined by the retention times using linear interpolation between two successive alkanones). The lambda maX values were determined in the maxima of the chromatographic signals using the UV spectra from 200 nm to 400 nm.

[2] = tested on: Venturia inaequalis; assay: Example D: Venturia test (apple)/protective; assay type: in vivo; conditions: protective, 100 ppm, evaluation 10 days after inoculation
Protocol: (§1) Solvent: 24.5 parts by weight of acetone • 24.5 parts by weight of dimethylacetamide Emulsifier: 1 part by weight of alkylaryl polyglycol ether To produce a suitable preparation of active compound, 1 part by weight of active compound is mixed with the stated amounts of solvent and emulsifier, and the concentrate is diluted with water to the desired concentration. To test for protective activity, young plants are sprayed with the preparation of active compound at the stated application rate. […] The plants are then placed in a greenhouse at about 21° C. and a relative atmospheric humidity of about 90%.

[3] = tested on: Phakopsora pachyrhizi; assay: Example F: Phakopsora test (soya beans)/protective; assay type: in vivo; conditions: protective, 100 ppm, evaluation 7 days after inoculation
Protocol: (§2) Solvents: 24.5 parts by weight of acetone • 24.5 parts by weight of dimethylacetamide Emulsifier: 1 part by weight of alkylaryl polyglycol ether To produce a suitable preparation of active compound, 1 part by weight of active compound is mixed with the stated amounts of solvent and emulsifier, and the concentrate is diluted with water to the desired concentration. To test for protective activity, young plants are sprayed with the preparation of active compound at the stated application rate.

[4] = tested on: Blumeria graminis f.sp. hordei; assay: Example G: Blumeria graminis test (barley)/protective; assay type: in vivo; conditions: protective, 500 ppm, evaluation 7 days after inoculation
Protocol: as §2, with “Solvent: 49” for “Solvents: 24.5”, “N,N-dimethylacetamide” for “acetone • 24.5 parts by weight of dimethylacetamide”, “rate. After the spray coating has dried on, the plants are dusted with spores of Blumeria graminis f.sp. hordei.” for “rate.”

[5] = tested on: Septoria tritici; assay: Example I: Septoria tritici test (wheat)/protective; assay type: in vivo; conditions: protective, 500 ppm, evaluation 21 days after inoculation
Protocol: as §2, with “Solvent: 49” for “Solvents: 24.5”, “N,N-dimethylacetamide” for “acetone • 24.5 parts by weight of dimethylacetamide”, “rate. After the spray coating has dried on, the plants are sprayed with a spore suspension of Septoria tritici.” for “rate.”

[6] = tested on: Puccinia triticina; assay: Example L: Puccinia triticina test (wheat)/protective; assay type: in vivo; conditions: protective, 500 ppm, evaluation 8 days after inoculation
Protocol: as §2, with “Solvent: 49” for “Solvents: 24.5”, “N,N-dimethylacetamide” for “acetone • 24.5 parts by weight of dimethylacetamide”, “rate. After the spray coating has dried on, the plants are sprayed with spores with a spore suspension of Puccinia triticina.” for “rate.”

[7] = tested on: Botrytis cinerea; assay: Example P: preventative in vivo test with Botrytis cinerea (grey mould); conditions: cucumber, 500 ppm, evaluation 4-5 days after inoculation
Protocol: The active compounds tested are prepared by homogenization in a mixture of acetone/Tween/DMSO and then diluted with water to the desired active compound concentration. Cucumber plants (cultivar “Vert petit de Paris”), sown in a 50/50 peat/pozzolana soil substrate and cultivated at 24° C., are treated at the Z11 cotyledon stage by spraying with the active compound, prepared as above. As a control, plants are treated with the mixture of acetone/Tween/DMSO/water without the active compound. After 24 hours, the plants are inoculated by spraying the cotyledons with an aqueous suspension of cryogenically preserved Botrytis cinerea spores.

[8] = tested on: Puccinia recondita; assay: Example T: preventative in vivo test with Puccinia recondita (brown rust on wheat); conditions: 500 ppm, evaluation 10 days after inoculation
Protocol: The active compounds tested are prepared by homogenization in a mixture of acetone/Tween/DMSO and then diluted with water to the desired active compound concentration. Wheat plants (cultivar “Scipion”), sown in a 50/50 peat/pozzolana soil substrate and cultivated at 22° C. (12 h)/20° C. (12 h), are treated at the 1-leaf stage (height 10 cm) by spraying with the active compound, prepared as above. As a control, plants are treated with the mixture of acetone/Tween/DMSO/water without the active compound. After 24 hours, the plants are inoculated by spraying the leaves with an aqueous suspension of Puccinia recondita spores.

[9] = tested on: Septoria tritici; assay: Example U: preventative in vivo test with Septoria tritici (leaf blotch disease on wheat); conditions: 500 ppm, evaluation 21 to 28 days after inoculation
Protocol: The active compounds tested are prepared by homogenization in a mixture of acetone/Tween/DMSO and then diluted with water to the desired active compound concentration. Wheat plants (cultivar “Scipion”), sown in a 50/50 peat/pozzolana soil substrate and cultivated at 22° C. (12 h)/20° C. (12 h), are treated at the 1-leaf stage (height 10 cm) by spraying with the active compound, prepared as above. As a control, plants are treated with the mixture of acetone/Tween/DMSO/water without the active compound. After 24 hours, the plants are inoculated by spraying the leaves with an aqueous suspension of cryogenically preserved Septoria tritici spores.

[10] = tested on: Sphaerotheca fuliginea; assay: Example V: preventative in vivo test with Sphaerotheca fuliginea (powdery mildew on cucumber); conditions: 500 ppm, evaluation 12 days after inoculation
Protocol: The active compounds tested are prepared by homogenization in a mixture of acetone/Tween/DMSO and then diluted with water to the desired active compound concentration. Cucumber plants (cultivar “Vert petit de Paris”), sown in a 50/50 peat/pozzolana soil substrate and cultivated at 24° C., are treated at the Z11 cotyledon stage by spraying with the active compound, prepared as above. As a control, plants are treated with the mixture of acetone/Tween/DMSO/water without the active compound. After 24 hours, the plants are inoculated by spraying the leaves with an aqueous suspension of Sphaerotheca fuliginea spores. The inoculated cucumber plants are incubated at about 20° C./25° C. and a relative atmospheric humidity of 60/70%.

[11] = tested on: Uromyces appendiculatus; assay: Example W: preventative in vivo test with Uromyces appendiculatus (bean rust); conditions: 500 ppm, evaluation 10 days after inoculation
Protocol: The active compounds tested are prepared by homogenization in a mixture of acetone/Tween/DMSO and then diluted with water to the desired active compound concentration. Bean plants (cultivar “Saxa”), sown in a 50/50 peat/pozzolana soil substrate and cultivated at 24° C., are treated at the 2-leaf stage (height 9 cm) by spraying with the active compound, prepared as above. As a control, plants are treated with the mixture of acetone/Tween/DMSO/water without the active compound. After 24 hours, the plants are inoculated by spraying the leaves with an aqueous suspension of Uromyces appendiculatus spores.

[12] = tested on: Pyricularia oryzae; assay type: in vivo; conditions: rice, protective, 500 ppm, evaluation 7 days after inoculation
[13] = tested on: Puccinia recondita; assay: Example X: Puccinia test (wheat)/protective, comparison; assay type: in vivo; conditions: protective, application rate 500 ppm, evaluation 7-9 days after inoculation
Protocol: as §2, with “Solvent: 49” for “Solvents: 24.5”, “N,N-dimethylformamide” for “acetone • 24.5 parts by weight of dimethylacetamide”, “rate. One day after this treatment, the plants are inoculated with an aqueous spore suspension of Puccinia recondita.” for “rate.”

[14] = tested on: Uromyces appendiculatus; assay: Example E: Uromyces test (bean)/protective; assay type: in vivo; conditions: protective, 10 ppm, evaluation 10 days after inoculation
Protocol: as §1, with “Solvents:” for “Solvent:”

[15] = tested on: Alternaria brassicae; assay: Example O: preventative in vivo test with Alternaria brassicae (leaf spot on radish); conditions: 500 ppm, evaluation 5 days after inoculation
Protocol: The active compounds tested are prepared by homogenization in a mixture of acetone/Tween/DMSO and then diluted with water to the desired active compound concentration. Radish plants (cultivar “Pernod Clair”), sown in a 50/50 peat/pozzolana soil substrate and cultivated at 17° C., are treated at the 2-leaf stage by spraying with the active compound, prepared as above. As a control, plants are treated with the mixture of acetone/Tween/DMSO/water without the active compound. After 24 hours, the plants are inoculated by spraying the leaves with an aqueous suspension of Alternaria brassicae spores.

[16] = tested on: Pyrenophora teres; assay: Example R: preventative in vivo test with Pyrenophora teres (net blotch on barley); conditions: 500 ppm, evaluation 12 days after inoculation
Protocol: The active compounds tested are prepared by homogenization in a mixture of acetone/Tween/DMSO and then diluted with water to the desired active compound concentration. Barley plants (cultivar “Plaisant”), sown in a 50/50 peat/pozzolana soil substrate and cultivated at 22° C. (12 h)/20° C. (12 h), are treated at the 1-leaf stage (height 10 cm) by spraying with the active compound, prepared as above. As a control, plants are treated with the mixture of acetone/Tween/DMSO/water without the active compound. After 24 hours, the plants are inoculated by spraying the leaves with an aqueous suspension of Pyrenophora teres spores.

[17] = tested on: Pyricularia oryzae; assay type: in vivo; conditions: rice, preventative, 500 ppm, evaluation 6 days after inoculation
[18] = tested on: Uromyces appendiculatus; assay: Example Y: Uromyces test (beans)/protective, comparison; assay type: in vivo; conditions: protective, application rate 10 ppm, evaluation 10 days after inoculation
Protocol: as §1, with “Solvents:” for “Solvent:”

[19] = tested on: Septoria tritici; assay: Example Z: Septoria tritici test (wheat)/protective, comparison; assay type: in vivo; conditions: protective, application rate 250 ppm, evaluation 21 days after inoculation
Protocol: Solvent: 49 parts by weight of N,N-dimethylacetamide Emulsifier: 1 part by weight of alkylaryl polyglycol ether To produce a suitable preparation of active compound, 1 part by weight of active compound or active compound combination is mixed with the stated amounts of solvent and emulsifier, and the concentrate is diluted with water to the desired concentration. To test for protective activity, young plants are sprayed with the preparation of active compound or active compound combination at the stated application rate. After the spray coating has dried on, the plants are sprayed with a spore suspension of Septoria tritici.

`Fc1ccc([C@]2(Cn3ccnc3I)O[C@H]2c2ccccc2Cl)c(F)c1` (relative stereo) [Example 14, rel-1-{[(2R,3S)-3-(2-chlorophenyl)-2-(2,4-difluorophenyl)oxiran-2-yl]methyl}-2-iodo-1H-imidazole] gave a chromatographic logP ([1]; pH 2.7, log P(HCOOH)) of 3.23, a chromatographic logP ([1]; pH 2.7, logP) of 3.23 and an Eff. % [2] of 100%. For the same compound, the Eff. % [3] was 100%, the Eff. % [4] was 90% and the Eff. % [5] was 100%. It also gave an Eff. % [6] of 100%, an Efficacy % [7] of 97% and an Efficacy % [8] of 93%. The Efficacy % [9] was 100%, the Efficacy % [10] was 100% and the Efficacy % [11] was 100%.

For `CC(C)(C)C(O)(CCc1ccc(Cl)cc1)Cn1ccnc1I` (stereo not shown) [Example 4], the Eff. % [12] was 80% and the Efficacy in % [13] was 95%.

With `Fc1ccc(C2(Cn3ccnc3I)OC2c2ccccc2Cl)cc1` (stereo not shown) [Example 8] the logP [1] was 3.09^[a], the Eff. % [2] was 100% and the Eff. % [14] was 100%. It also gave an Eff. % [3] of 99%, an Efficacy % [15] of 88% and an Efficacy % [16] of 79%. The Efficacy % [17] was 75%, the Efficacy % [8] was 97% and the Efficacy % [9] was 100%. The Efficacy % [10] was 100% and the Efficacy % [11] was 100%.

With `Fc1cc(Cl)ccc1C1(Cn2ccnc2I)OC1c1ccccc1Cl` (stereo not shown) [Example 11] the logP [1] was 3.7^[a], the Efficacy % [7] was 92% and the Efficacy % [8] was 93%. It also gave an Efficacy % [9] of 100%, an Efficacy % [10] of 100% and an Efficacy % [11] of 97%.

Compound `OC(Cc1ccc(F)cc1)(Cn1ccnc1)C1(Cl)CC1` (stereo not shown) [drawing 19, reference compound] has an Efficacy in % [18] of 65%.

For `OC(Cc1ccc(F)cc1)(Cn1ccnc1)C1(Cl)CC1` (stereo not shown) [drawing 21, reference compound], the Efficacy in % [19] was 43%.

`CC(C)(C)C(O)(CCc1ccc(Cl)cc1)Cn1ccnc1` (stereo not shown) [reference compound] showed an Efficacy in % [13] of 70%.
